The NIST ThermoML archive (doi:10.1021/je9005344)

Assay: xn = mol fraction of the nth substance listed
Settings: 101 kPa, Liquid; for speed of sound: Pulse-echo method; for mass density: Vibrating tube method

COCCO [2-methoxyethan-1-ol] + CCCCCCCCCCO
Settings | mass density, 293.15 K [kg/m3] | mass density, 298.15 K [kg/m3] | mass density, 303.15 K [kg/m3] | mass density, 308.15 K [kg/m3] | speed of sound, 293.15 K [m/s] | speed of sound, 298.15 K [m/s] | speed of sound, 303.15 K [m/s] | speed of sound, 308.15 K [m/s]
x1 = 0.0606 | 832.95 | 829.505 | 826.05 | 822.58 | 1393.1 | 1375.9 | 1359 | 1342.2
x1 = 0.1173 | 835.952 | 832.457 | 828.982 | 825.482 | 1389.5 | 1372.4 | 1355.4 | 1338.6
x1 = 0.1631 | 838.564 | 835.06 | 831.539 | 828.008 | 1386.6 | 1369.5 | 1352.6 | 1335.8
x1 = 0.1934 | 840.414 | 836.878 | 833.342 | 829.786 | 1384.7 | 1367.5 | 1350.6 | 1333.8
x1 = 0.251 | 844.262 | 840.695 | 837.111 | 833.512 | 1380.8 | 1363.7 | 1346.8 | 1330
x1 = 0.3025 | 847.887 | 844.28 | 840.662 | 837.024 | 1377.5 | 1360.4 | 1343.5 | 1326.7
x1 = 0.413 | 856.97 | 853.268 | 849.553 | 845.819 | 1370.2 | 1353.1 | 1336.2 | 1319.4
x1 = 0.517 | 867.321 | 863.518 | 859.697 | 855.861 | 1363.6 | 1346.6 | 1329.6 | 1312.8
x1 = 0.6285 | 880.912 | 876.98 | 873.028 | 869.056 | 1356.6 | 1339.6 | 1322.6 | 1305.7
x1 = 0.7087 | 892.252 | 888.913 | 884.854 | 880.773 | 1352.5 | 1335.3 | 1318.4 | 1301.5
x1 = 0.7965 | 909.015 | 904.836 | 900.644 | 896.427 | 1349.5 | 1332.3 | 1315.3 | 1298.3
x1 = 0.9382 | 944.534 | 940.097 | 935.63 | 931.137 | 1352.5 | 1335.3 | 1318.2 | 1301.1

COCCO [2-methoxyethan-1-ol] + CCCCCCCCO
Settings | mass density, 293.15 K [kg/m3] | mass density, 298.15 K [kg/m3] | mass density, 303.15 K [kg/m3] | mass density, 308.15 K [kg/m3] | speed of sound, 293.15 K [m/s] | speed of sound, 298.15 K [m/s] | speed of sound, 303.15 K [m/s] | speed of sound, 308.15 K [m/s]
x1 = 0.0535 | 828.636 | 825.138 | 821.625 | 818.089 | 1362 | 1345 | 1328.2 | 1311.5
x1 = 0.1073 | 832.242 | 828.704 | 825.153 | 821.583 | 1359.3 | 1342.3 | 1325.5 | 1308.9
x1 = 0.1407 | 834.668 | 831.104 | 827.528 | 823.931 | 1357.9 | 1340.7 | 1323.9 | 1307.2
x1 = 0.2002 | 839.135 | 835.528 | 831.905 | 828.261 | 1354.9 | 1337.9 | 1321.1 | 1304.5
x1 = 0.2659 | 844.444 | 840.786 | 837.111 | 833.414 | 1351.9 | 1334.9 | 1318.1 | 1301.4
x1 = 0.2973 | 847.294 | 843.606 | 839.904 | 836.178 | 1350.5 | 1333.6 | 1316.8 | 1300.1
x1 = 0.3559 | 852.613 | 848.877 | 845.122 | 841.346 | 1348 | 1331.1 | 1314.2 | 1297.5
x1 = 0.5233 | 870.97 | 870.97 | 863.148 | 859.203 | 1342.3 | 1325.3 | 1308.5 | 1296.6
x1 = 0.6059 | 881.954 | 867.068 | 873.942 | 869.902 | 1340.4 | 1323.4 | 1306.5 | 1289.7
x1 = 0.7126 | 898.662 | 877.961 | 890.382 | 886.205 | 1339.7 | 1322.6 | 1305.7 | 1288.8
x1 = 0.7903 | 912.569 | 908.335 | 904.076 | 899.757 | 1340.9 | 1323.9 | 1306.9 | 1290
x1 = 0.9202 | 942.675 | 938.234 | 933.772 | 929.291 | 1349.3 | 1332.2 | 1315 | 1298

COCCO [2-methoxyethan-1-ol] + CCCCCCO
Settings | mass density, 293.15 K [kg/m3] | mass density, 298.15 K [kg/m3] | mass density, 303.15 K [kg/m3] | mass density, 308.15 K [kg/m3] | speed of sound, 293.15 K [m/s] | speed of sound, 298.15 K [m/s] | speed of sound, 303.15 K [m/s] | speed of sound, 308.15 K [m/s]
x1 = 0.0538 | 822.792 | 819.173 | 815.536 | 811.869 | 1319.2 | 1302.3 | 1285.5 | 1268.9
x1 = 0.1042 | 828.127 | 824.464 | 820.781 | 817.068 | 1318.3 | 1301.4 | 1284.6 | 1267.9
x1 = 0.1509 | 831.771 | 828.075 | 824.358 | 820.611 | 1317.7 | 1300.8 | 1284 | 1267.4
x1 = 0.2055 | 837.788 | 834.043 | 830.27 | 826.473 | 1317.1 | 1300.2 | 1283.4 | 1266.8
x1 = 0.2405 | 841.087 | 837.314 | 833.515 | 829.687 | 1316.7 | 1299.8 | 1283.1 | 1266.4
x1 = 0.2987 | 847.639 | 843.81 | 839.961 | 836.084 | 1316.3 | 1299.5 | 1282.7 | –
x1 = 0.4088 | 860.712 | 856.785 | 852.828 | 848.853 | 1317.3 | 1300.5 | 1283.6 | 1266.9
x1 = 0.5134 | 874.132 | 870.1 | 866.048 | 861.965 | 1318.6 | 1301.7 | 1284.8 | 1268.1
x1 = 0.5991 | 886.614 | 882.495 | 878.355 | 874.185 | 1321.2 | 1304.2 | 1287.3 | 1270.6
x1 = 0.6915 | 901.59 | 897.37 | 893.13 | 888.857 | 1325.9 | 1308.8 | 1291.9 | 1275
x1 = 0.805 | 922.045 | 917.699 | 913.334 | 908.936 | 1334.2 | 1317.1 | 1300.1 | 1283.2
x1 = 0.9039 | 942.54 | 938.079 | 933.591 | 929.076 | 1345 | 1327.9 | 1310.8 | 1293.7
